Results taken from US6486190B1, “5-(2-imidazolinylamino)-benzimidazole derivatives, their preparation and their use as α-adrenoceptor agonists with improved metabolic stability” (The Procter & Gamble Company, priority 1997, dated 2002).
Where two headings read alike, the source gives them in different places.

Tests used:
[1] = precision cut liver slice assay (metabolic stability, N-methylation); assay type: in vitro ADME; conditions: for metabolic N-methylation (N-methyl metabolites): in these assays: precision cut liver slice assay and pharmacokinetic studies in primates
Description: Metabolic stability of the compounds described above is evaluated in vitro in a precision cut liver slice assay and in vivo in pharmacokinetic studies in primates. The precision cut liver slice assay is a well recognized, validated in vitro model to study xenobiotic metabolism in animal species and humans. (See Ekins, S. “Past, present, and future applications of precision-cut liver slices for in vitro xenobiotic metabolism.” (Department of Medicine and Therapeutics, University of Aberdeen, UK.) Drug-Metab-Rev. (November, 1996) Vol. 28, No. 4: pp. 591-623). […] The assay provides data on the biotransformations taking place within intact hepatocytes of the species of interest. Thus the full compliment of phase I and phase II metabolic enzymes are available to metabolize the drug as is the case in vivo.

[2] = pharmacokinetic studies in primates: parent and N-methyl metabolite in urine after oral dosing; assay type: in vivo, cynomolgus monkeys
Description: For the pharmacokinetic studies, the compounds are administered orally to cynomolgus monkeys and measurements of administered benzimidazole compounds and corresponding N-methyl metabolites are made using 100 μL aliquots of urine collected over various time-periods post-dose. Typically, a chemical homolog or stable-isotope-labeled internal standard is added to each sample and then diluted 100× in water. Ten μL of prepared sample is then analyzed by gradient HPLC, with tandem mass spectrometry detection. Single ion reaction monitoring schemes are employed to selectively detect the test compound, its N-methyl metabolite (if present), and the internal standard.

alpha-2 adrenoceptors = assay: alpha-2 adrenergic activity and selectivity (receptor binding affinities and in vitro functional potencies); assay type: biochemical
Description: (§1) The pharmacological activity and selectivity of these compounds can be determined using published test procedures. […] (See, e.g., The Alpha-2 Adrenergic Receptors, L. E. Limbird, ed., Humana Press, Clifton, N.J.) The following in vivo assays are typically conducted in rodents or other species. Central nervous system activity is determined by measuring locomotor activity as an index of sedation. (See, e.g., Spyraki, C. & H. Fibiger, “Clonidine-induced Sedation in Rats: Evidence for Mediation by Postsynaptic Alpha-2 Adrenoreceptors”, Journal of Neural Transmission, Vol. 54 (1982), pp. 153-163). Nasal decongestant activity is measured using rhinomanometry as an estimate of nasal airway resistance. […] Antiglaucoma activity is determined by measuring intraocular pressure. […] Antidiarrheal activity is determined by measuring the ability of the compounds to inhibit prostaglandin-induced diarrhea. […] Efficacy in treating irritable bowel syndrome is determined by measuring the ability of compounds to reduce the stress-induced increase in fecal output. […] Antiasthma activity is determined by measuring the effect of the compound on bronchoconstriction associated with pulmonary challenges such as inhaled antigens. […] Activity in cough is determined by measuring the number and latency of the cough response to respiratory challenges such as inhaled citric acid. […]

central nervous system = central nervous system activity (locomotor activity as an index of sedation); parameters: species or system rodents; conditions: in vivo
Description: as §1

Question: With `CCc1c(NC2=NCCN2)ccc2[nH]cnc12` [4-ethyl-5-(2-imidazolinylamino)benzimidazole] as the compound, how does the “metabolic N-methylation (N-methyl metabolites)” value [1] read?
Answer: N-methyl metabolites were found

Question: What about the N-methylation in primates [2] of the same compound?
Answer: rapidly and extensively N-methylated

Question: And the “alpha-2 adrenergic activity (pharmacological profile)” value (alpha-2 adrenoceptors)?
Answer: selective alpha-2 adrenergic agonist

Question: For `Cc1c(NC2=NCCN2)ccc2[nH]cnc12` [5-(2-Imidazolinylamino)-4-methylbenzimidazole], which “metabolic N-methylation (N-methyl metabolites)” value [1] is on record?
Answer: N-methyl metabolites were found

Question: And the “metabolism / methyl metabolite formation” value ([1]; precision cut liver slice assay)?
Answer: rapidly metabolized

Question: And the “alpha-2 adrenergic activity (pharmacological profile)” value (alpha-2 adrenoceptors)?
Answer: very potent and selective alpha-2 adrenergic agonists

Question: And the CNS activity (central nervous system)?
Answer: very low CNS activity

Question: With `Cc1c(N=C2NCCN2)cc(C#N)c2[nH]cnc12` [Example 1, 7-Cyano-5-(2-imidazolinylamino)-4-methylbenzimidazole] as the compound, how does the “metabolism / methyl metabolite formation” value [1] read?
Answer: no evidence of the methyl metabolite

Question: And the CNS activity (central nervous system)?
Answer: very low CNS activity
